The values below come from ChEMBL document CHEMBL1151119, “Isolation and structure of the cytostatic lignan glycoside phyllanthostatin A” (1988).

The experiment deals with P388. The experiment can be described thus: Cytotoxicity against mouse P388 cells. It is filed as functional. Particulars: read-out: ED50 (the source's name).

Converted amounts (≈) assume the structure as drawn.

Take `COc1cc2cc(COC(C)=O)c(C(=O)O[C@@H]3O[C@H](CO)[C@@H](O)[C@H](O)[C@H]3O)c(-c3ccc4c(c3)OCO4)c2cc1OC` [PHYLLANTHOSTATIN A]: the EC50 worked out at 4 µg/mL (≈ 6.82 µM).
